In publication PMC4324968, “High-Affinity Accumulation of a Maytansinoid in Cells via Weak Tubulin Interaction” (PLoS ONE, 2015) one finds Kd data, which are given here for two molecules.

Assay [1] relates to T1, tubulin (microtubule-assembled, in MCF7 cells).
T1 construct: endogenous cellular tubulin in MCF7 cells; with αβ-heterodimer in microtubules
As to the kind of experiment: 3H-paclitaxel equilibrium binding to MCF7 cells, Scatchard. The class given is cell-based.

Assay [2] concerns the target T2, tubulin (αβ-heterodimer, bovine brain; maytansine site on β-tubulin).
T2 construct: with α-tubulin (αβ-heterodimer)
Description: equilibrium radioligand binding of 3H-S-methyl DM1 to tubulin-loaded liposomes (apparent Kd). On the set-up: species or system Bos taurus.

For `CC(=O)O[C@H]1C(=O)[C@@]2(C)[C@H]([C@H](OC(=O)c3ccccc3)[C@]3(O)C[C@H](OC(=O)[C@H](O)[C@@H](NC(=O)c4ccccc4)c4ccccc4)C(C)=C1C3(C)C)[C@]1(OC(C)=O)CO[C@@H]1C[C@@H]2O` [paclitaxel], the Kd in assay [1] is 60 ± 10 nM. Consider `COc1cc2cc(c1Cl)N(C)C(=O)C[C@H](OC(=O)[C@H](C)N(C)C(=O)CCSC)[C@]1(C)O[C@H]1[C@H](C)[C@@H]1C[C@@](O)(NC(=O)O1)[C@H](OC)/C=C/C=C(\C)C2` [S-methyl DM1], for which the Kd in assay [2] turned out to be 21.5 ± 0.07 nM.
